# Experimental data as given in US20140135359A1, “METHODS OF DESIGNING, PREPARING, AND USING NOVEL PROTONOPHORES” (priority 2012, published 2014).
# How the values were obtained:
# [1] = test system: glucose-6-phosphatase (G6Pase) activity in H4IIE hepatocytes; experiment: Glucose-6-phosphatase activity in H4IIE hepatocytes; format: cell-based, murine; settings: 25 μM, 16 h
# Experimental: 2.4 Glucose-6-phosphatase activity in H4IIE hepatocytes: H4IIE murine hepatocytes (American Type Culture Collection) were cultured to confluence in 12-well plates in DMEM supplemented with 10% FBS and antibiotics. […] Effects of test compounds on cellular viability were assessed by measuring the release of lactate dehydrogenase (LDH) into the culture medium at the end of a 16 h treatment using a commercial kit (Cytotoxicity Detection Kit; Roche Diagnostics; Laval, QC) as per the manufacturer's instructions; LDH release was expressed as % of total (medium+lysate) LDH content for each well. Cells were also routinely inspected for abnormal morphology by phase-contrast microscopy at the conclusion of the treatment period. Following treatment, cells were washed in HEPES-buffered saline (10 mM HEPES, pH 7.4, 150 mM NaCl) at 37° C. Glucose-6-phosphatase (G6Pase) activity was assessed by measuring the rate of glucose formation in the presence of a non-limiting amount of glucose-6-phosphate (G6P), as done by others [39B, 40B]. Glucose production was measured with a commercial glucose assay kit (AutoKit Glucose; Wako Diagnostics; Richmond, Va.). Two hundred μl of AutoKit Glucose buffer solution diluted 1:4 in water were added to each well. Cells were then lysed by the addition of 50 μl of 0.05% Triton X-100 in similarly diluted AutoKit Glucose buffer solution. […] At 37° C., after which time 500 μl of AutoKit Glucose color reagent were added and incubation was continued for exactly 5 min. Samples were then rapidly transferred to microcentrifuge tubes. Fifty μl were removed for assay of total protein content in order to account for effects of test compounds on cellular viability or proliferation [41B]. A commercial protein assay kit based on the Bradford method was used (Protein Assay; Bio-Rad Laboratories; Hercules, Calif.). […] The remaining volume was centrifuged at 3000×g for 5 min. Absorbance of the supernatant was measured at 505 nm at ambient temperature and glucose concentration was calculated from a standard curve performed in parallel. Control wells without exogenous G6P were included on each plate for each treatment condition and activity measured from these wells was subtracted from activity measured in the presence of exogenous G6P. G6Pase activity calculated in this way was then expressed normalized to protein content on a well-by-well basis. Two independent experiments in cells of different passages were performed for each of the selected test compounds, with four to six replicates per condition per experiment.
# Protocol for assay of glucose-6-phosphatase activity in H4IIE or other hepatocytes: H4IIE murine hepatocytes (American Type Culture Collection) may be cultured to confluence in 12-well plates in Dulbecco's modified Eagle's medium (DMEM) supplemented with 10% fetal bovine serum (FBS), and antibiotics. […] Effects of test compounds on cellular viability may be assessed by measuring the release of lactate dehydrogenase (LDH) into the culture medium at the end of a 16 hour treatment using a commercial kit (e.g., Cytotoxicity Detection Kit; Roche Diagnostics; Laval, QC) as per the manufacturer's instructions; LDH release may be expressed as % of total (i.e., medium+lysate) LDH content for each well. Cells may also be routinely inspected for abnormal morphology by phase-contrast microscopy at the conclusion of the treatment period. Following treatment, cells may be washed in HEPES-buffered saline (10 mM HEPES, pH 7.4, 150 mM NaCl) at 37° C. Glucose-6-phosphatase (G6Pase) activity may be assessed by measuring the rate of glucose formation in the presence of a non-limiting amount of glucose-6-phosphate (G6P). Glucose production may be measured with a commercial glucose assay kit (e.g., AutoKit Glucose; Wako Diagnostics; Richmond, Va.). Two hundred μl of AutoKit Glucose buffer solution diluted 1:4 in water may be added to each well.
# [2] = test system: isolated rat liver mitochondria; experiment: Uncoupling activity: increase in basal (state 4) oxygen consumption by oxygraphy; format: biochemical; settings: for Uncoupling (%): increase in basal (state 4) oxygen consumption as % of average ADP-stimulated (state 3) rate in vehicle-treated mitochondria
smiles,measurement,setting,value
"O=[N+]([O-])c1ccc(O)c([N+](=O)[O-])c1 [2,4-dinitrophenol]",suppression of G6Pase activity per mg total protein,[1],39%
same,uncoupling activity,[2]; 50 μM in 0.1% DMSO (FIG. 19),increased basal oxygen consumption above the level of ADP-stimulated consumption
same,measured uncoupling activity,[2]; 100 μM,143%
same,slope of the linear portion of the concentration-to-activity relationship,"[2]; dose-escalation, logarithmic scales",0.89
same,EC50,"[2]; dose-escalation, read-out: U50 (concentration at which 50% uncoupling is induced)",~10 µM
same,Uncoupling (%),[2]; test conc. 25 μM,127 ± 11%
same,Uncoupling (%),[2]; test conc. 100 μM,143 ± 5%
